Values of other authors as cited in US8557301B2, “Oral rehydration composition” (Drip Drop, Inc., priority 2011, dated 2013).

Tested on: net sodium and water absorption

O=C(CO)[C@@H](O)[C@H](O)[C@H](O)CO [fructose]
effect on potassium transport: stimulates potassium absorption | net sodium and water absorption stimulated, as much as glucose (relative to glucose): 66-100%
